Assay results as given in patent EP4007494B1, “METHOD OF IMPROVING COLD STRESS TOLERANCE AND CROP SAFETY” (Bayer CropScience LLC, priority 2019, dated 2021).
Where two headings read alike, the source gives them in different places.

System: canola
Conditions: for Average Relative Yield: relative to PROSPER EVERGOL

O=C1C=C(N(Cc2ccc(Cl)nc2)CC(F)F)CO1 [Flupyradifurone, flupyradifurone]
Average Relative Yield (Flupyradifurone 5 g per kg seed, alone or + QST713 1 × 10^6 CFU per seed): 102.0% | Average Relative Yield (Flupyradifurone 10 g per kg seed): 100.5% | Average Relative Stand Density (in vivo): 83.2% | Average Vigor Rating (in vivo): 4.2 | Relative Delay in Emergence (in vivo): 3.5 days | average relative stand density (in vivo): decreased | delay in emergence (in vivo): significant delay in emergence
